Molecular target: T1, protein kinase CK2 (CK2α) (Homo sapiens, UniProt P68400)
T1 construct: gene CSNK2A1
Test: radioactive kinase assay with recombinant CK2 and synthetic peptide, varied ATP, Michaelis-Menten re-plots
Format: biochemical

T1 sequence (P68400 1-335): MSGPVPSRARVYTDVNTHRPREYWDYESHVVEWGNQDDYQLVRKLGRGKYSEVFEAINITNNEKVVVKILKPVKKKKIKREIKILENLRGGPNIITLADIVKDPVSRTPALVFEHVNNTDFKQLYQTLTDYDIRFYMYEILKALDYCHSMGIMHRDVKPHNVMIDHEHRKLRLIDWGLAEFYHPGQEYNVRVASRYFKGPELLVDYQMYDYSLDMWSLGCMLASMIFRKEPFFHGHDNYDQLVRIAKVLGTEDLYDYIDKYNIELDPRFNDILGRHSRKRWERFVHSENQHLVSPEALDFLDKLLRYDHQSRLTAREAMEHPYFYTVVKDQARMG
T1 sequence (P67870 2-215 partner): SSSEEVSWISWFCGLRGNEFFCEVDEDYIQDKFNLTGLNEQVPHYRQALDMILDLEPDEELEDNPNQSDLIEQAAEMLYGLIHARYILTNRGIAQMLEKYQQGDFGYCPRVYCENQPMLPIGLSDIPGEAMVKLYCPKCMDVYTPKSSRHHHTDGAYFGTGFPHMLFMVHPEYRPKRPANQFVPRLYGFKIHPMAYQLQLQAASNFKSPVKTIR

Ki: 7.7 nM
Compound: COc1ccc(/N=C/c2c(O)ccc3c2oc2cc(Cl)c(O)c(Cl)c23)cc1 [D11, 1,3-dichloro-6-[(E)-((4-methoxyphenyl)imino)methyl]dibenzo(b,d)furan-2,7-diol]
